Assay results as given in ChEMBL document CHEMBL1201862, “PubChem BioAssay data set” (2004).
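The compound was tested at five concentrations on cells cultured in 96-well plates, with a 48-hour exposure period. Abbreviation: GI50, concentration required for 50% inhibition of growth.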 Activity calls are given as the source filed them. Rule as the data show it: active = GI50 up to about 1.1 µM and inactive = higher.

Key:
Assay in all cases: NCI anticancer screen, dose series, 48 h
786-0 = system: 786-0
A498 = system: A498
A549 = system: A549
ACHN = system: ACHN
BT-549 = system: BT-549
CAKI-1 = system: CAKI-1
CCRF-CEM = system: CCRF-CEM
COLO 205 = system: COLO 205
DU-145 = system: DU-145
EKVX = system: EKVX
HCC 2998 = system: HCC 2998
HCT-116 = system: HCT-116
HCT-15 = system: HCT-15
HL-60 = system: HL-60
HOP-62 = system: HOP-62
HT-29 = system: HT-29
Hs-578T = system: Hs-578T
IGROV-1 = system: IGROV-1
K562 = system: K562
KM12 = system: KM12
LOX IMVI = system: LOX IMVI
M14 = system: M14
MCF7 = system: MCF7
MDA-MB-231 = system: MDA-MB-231
MDA-MB-435 = system: MDA-MB-435
MDA-N = system: MDA-N
MOLT-4 = system: MOLT-4
Malme-3M = system: Malme-3M
NCI-H226 = system: NCI-H226
NCI-H23 = system: NCI-H23
NCI-H460 = system: NCI-H460
NCI-H522 = system: NCI-H522
NCI/ADR-RES = system: NCI/ADR-RES
OVCAR-3 = system: OVCAR-3
OVCAR-4 = system: OVCAR-4
OVCAR-5 = system: OVCAR-5
OVCAR-8 = system: OVCAR-8
PC-3 = system: PC-3
RPMI-8226 = system: RPMI-8226
RXF 393 = system: RXF 393
SF-268 = system: SF-268
SF-295 = system: SF-295
SF-539 = system: SF-539
SK-MEL-28 = system: SK-MEL-28
SK-MEL-2 = system: SK-MEL-2
SK-MEL-5 = system: SK-MEL-5
SK-OV-3 = system: SK-OV-3
SN12C = system: SN12C
SNB-19 = system: SNB-19
SNB-75 = system: SNB-75
SR = system: SR
SW-620 = system: SW-620
T47D = system: T47D
U-251 = system: U-251
UACC-257 = system: UACC-257
UACC-62 = system: UACC-62
UO-31 = system: UO-31
HOP-92 = system: HOP-92
TK-10 = system: TK-10

NC(=O)c1nnsc1N/N=C/c1ccc([N+](=O)[O-])cc1
GI50 (786-0): 41 µM (inactive) | GI50 (A498): > 100 µM (inactive) | GI50 (A549): > 100 µM (inactive) | GI50 (ACHN): > 100 µM (inactive) | GI50 (BT-549): 19.7 µM (inactive) | GI50 (CAKI-1): > 100 µM (inactive) | GI50 (CCRF-CEM): > 100 µM (inactive) | GI50 (COLO 205): > 100 µM (inactive) | GI50 (DU-145): > 100 µM (inactive) | GI50 (EKVX): > 100 µM (inactive) | GI50 (HCC 2998): > 100 µM (inactive) | GI50 (HCT-116): > 100 µM (inactive) | GI50 (HCT-15): > 100 µM | GI50 (HL-60): 73.5 µM (inactive) | GI50 (HOP-62): > 100 µM (inactive) | GI50 (HT-29): > 100 µM (inactive) | GI50 (Hs-578T): > 100 µM (inactive) | GI50 (IGROV-1): > 100 µM (inactive) | GI50 (K562): > 100 µM (inactive) | GI50 (KM12): > 100 µM (inactive) | GI50 (LOX IMVI): > 100 µM (inactive) | GI50 (M14): > 100 µM (inactive) | GI50 (MCF7): > 100 µM (inactive) | GI50 (MDA-MB-231): > 100 µM (inactive) | GI50 (MDA-MB-435): 76.9 µM (inactive) | GI50 (MDA-N): > 100 µM (inactive) | GI50 (MOLT-4): > 100 µM (inactive) | GI50 (Malme-3M): > 100 µM (inactive) | GI50 (NCI-H226): > 100 µM (inactive) | GI50 (NCI-H23): > 100 µM (inactive) | GI50 (NCI-H460): > 100 µM (inactive) | GI50 (NCI-H522): > 100 µM (inactive) | GI50 (NCI/ADR-RES): > 100 µM (inactive) | GI50 (OVCAR-3): 55.2 µM (inactive) | GI50 (OVCAR-4): > 100 µM (inactive) | GI50 (OVCAR-5): > 100 µM (inactive) | GI50 (OVCAR-8): > 100 µM (inactive) | GI50 (PC-3): > 100 µM (inactive) | GI50 (RPMI-8226): > 100 µM (inactive) | GI50 (RXF 393): > 100 µM (inactive) | GI50 (SF-268): > 100 µM (inactive) | GI50 (SF-295): > 100 µM (inactive) | GI50 (SF-539): > 100 µM (inactive) | GI50 (SK-MEL-28): > 100 µM (inactive) | GI50 (SK-MEL-2): > 100 µM (inactive) | GI50 (SK-MEL-5): > 100 µM (inactive) | GI50 (SK-OV-3): > 100 µM (inactive) | GI50 (SN12C): > 100 µM (inactive) | GI50 (SNB-19): > 100 µM (inactive) | GI50 (SNB-75): > 100 µM (inactive) | GI50 (SR): 33.9 µM (inactive) | GI50 (SW-620): > 100 µM (inactive) | GI50 (T47D): > 100 µM (inactive) | GI50 (U-251): > 100 µM (inactive) | GI50 (UACC-257): > 100 µM (inactive) | GI50 (UACC-62): > 100 µM (inactive) | GI50 (UO-31): 77.1 µM (inactive)

COc1ccc2c(c1)SC1=Nc3sc4cc(OC)ccc4[n+]3CN12
GI50 (786-0): 29.9 µM (inactive) | GI50 (A549): 29.1 µM (inactive) | GI50 (ACHN): 49.8 µM (inactive) | GI50 (BT-549): 66.8 µM (inactive) | GI50 (CAKI-1): 32.9 µM (inactive) | GI50 (CCRF-CEM): 20.3 µM (inactive) | GI50 (COLO 205): 2.96 µM (inactive) | GI50 (DU-145): 29 µM (inactive) | GI50 (EKVX): 26.4 µM (inactive) | GI50 (HCT-116): 41 µM (inactive) | GI50 (HCT-15): 86.1 µM | GI50 (HL-60): 9.29 µM (inactive) | GI50 (HOP-62): 49.8 µM (inactive) | GI50 (HOP-92): 2.23 µM (inactive) | GI50 (HT-29): 16.2 µM (inactive) | GI50 (Hs-578T): 44.8 µM (inactive) | GI50 (IGROV-1): 24.9 µM (inactive) | GI50 (K562): 4.16 µM (inactive) | GI50 (KM12): 11.2 µM (inactive) | GI50 (M14): 33.1 µM (inactive) | GI50 (MCF7): 5.25 µM (inactive) | GI50 (MDA-MB-231): 29 µM (inactive) | GI50 (MDA-MB-435): 26.9 µM (inactive) | GI50 (MDA-N): 26.1 µM (inactive) | GI50 (MOLT-4): 4.62 µM (inactive) | GI50 (Malme-3M): 14.6 µM (inactive) | GI50 (NCI-H23): 15.7 µM (inactive) | GI50 (NCI-H460): 17.2 µM (inactive) | GI50 (NCI-H522): 1.38 µM (inactive) | GI50 (NCI/ADR-RES): 99.3 µM (inactive) | GI50 (OVCAR-3): 2.72 µM (inactive) | GI50 (OVCAR-5): 96.2 µM (inactive) | GI50 (OVCAR-8): 29.4 µM (inactive) | GI50 (PC-3): 36.5 µM (inactive) | GI50 (RPMI-8226): 20.7 µM (inactive) | GI50 (SF-268): 2.89 µM (inactive) | GI50 (SF-295): 31.3 µM (inactive) | GI50 (SF-539): 42.2 µM (inactive) | GI50 (SK-MEL-2): 15.8 µM (inactive) | GI50 (SK-MEL-5): 4.1 µM (inactive) | GI50 (SK-OV-3): 70.5 µM (inactive) | GI50 (SN12C): 25.5 µM (inactive) | GI50 (SNB-19): 54.3 µM (inactive) | GI50 (SR): 5.83 µM (inactive) | GI50 (SW-620): 35.7 µM (inactive) | GI50 (T47D): 4.99 µM (inactive) | GI50 (TK-10): 51.4 µM (inactive) | GI50 (U-251): 4.34 µM (inactive) | GI50 (UACC-257): 30.4 µM (inactive) | GI50 (UACC-62): 11.7 µM (inactive) | GI50 (UO-31): 53 µM (inactive)
